# Source: ChEMBL document CHEMBL4393728, “1-Phenyl-dihydrobenzoindazoles as novel colchicine site inhibitors: Structural basis and antitumor efficacy” (Eur J Med Chem, 2019)
# Calls of active or inactive are those of the source. The rule behind the calls is not given here.
# Experiments:
# [1] = molecular target: Tubulin (Bos taurus, UniProt Q6B856+Q862L2+Q862F3); experiment: Inhibition of bovine brain tubulin polymerization measured every 1 min for 60 mins by turbidimetric assay
# [2] = tested on: COLO 205; experiment: Antiproliferative activity against human COLO205 cells assessed as reduction in cell viability incubated for 72 hrs by MTT assay; type: functional, cell-based; settings: COLO 205, 72 h
# [3] = tested on: HCT-116; experiment: Antiproliferative activity against human HCT116 cells assessed as reduction in cell viability incubated for 72 hrs by MTT assay; type: functional, cell-based; settings: HCT-116, 72 h
# [4] = Solubility of compound in normal saline; type: physicochemical
# [5] = tested on: COLO 205; experiment: Antitumor activity against human COLO205 cells xenografted in BALB/c mouse assessed as reduction in tumor growth at 20 mg/kg, iv via tail once every 4 days for 16 days; type: functional, organism-based
# [6] = tested on: HCT-116; experiment: Antitumor activity against human HCT116 cells xenografted in BALB/c mouse assessed as reduction in tumor growth at 20 mg/kg, iv via tail once every 4 days for 16 days; type: functional, organism-based
# [7] = Toxicity in BALB/c mouse xenografted with HCT116 cells assessed as reduction in body weight at 20 mg/kg, iv via tail once every 4 days for 16 days; type: organism-based; settings: in vivo
# [8] = Toxicity in BALB/c mouse xenografted with COLO205 cells assessed as reduction in body weight at 20 mg/kg, iv via tail once every 4 days for 16 days; type: organism-based; settings: in vivo
Compound,IC50 [1],IC50 [2],further results
COc1ccc(/C=C2\c3cc(OC)c(OC)c(OC)c3CC[C@@H]2O)cc1,> 10000 nM,8150 nM,–
COc1ccc(-c2c3c(nn2C)CCc2c-3cc(OC)c(OC)c2OC)cc1F,> 10000 nM,1230 nM,–
COc1ccc(-c2[nH]nc3c2-c2cc(OC)c(OC)c(OC)c2CC3)cc1[N+](=O)[O-],> 10000 nM,300 nM,–
COc1ccc(-c2[nH]nc3c2-c2cc(OC)c(OC)c(OC)c2CC3)cc1F,9200 nM,2 nM,–
COc1ccc(-c2c3c(nn2C)CCc2c-3cc(OC)c(OC)c2OC)cc1,> 10000 nM,3350 nM,–
COc1ccc(-c2[nH]nc3c2-c2cc(OC)c(OC)c(OC)c2CC3)cc1N,1600 nM,1 nM,IC50 [3]: 1 nM; solubility [4]: 1000 µg/mL
COc1ccc(-c2c3c(nn2-c2ccccc2)CCc2c-3cc(OC)c(OC)c2OC)cc1F,> 10000 nM,> 10000 nM,–
COc1ccc(/C=C2\c3cc(OC)c(OC)c(OC)c3CC[C@H]2O)cc1,> 10000 nM,2970 nM,–
COc1ccc(/C=C\c2cc(OC)c(OC)c(OC)c2)cc1O [COMBRETASTATIN A4],–,–,IC50 [3]: 1 nM
COc1ccc(-c2[nH]nc3c2-c2cc(OC)c(OC)c(OC)c2CC3)cc1NC(=O)[C@@H](N)CO.Cl,> 10000 nM,2110 nM,Activity [5]: Active; IC50 [3]: 1940 nM; Activity [6]: Active; Activity [7]: Non-Toxic; Activity [8]: Non-Toxic
COc1ccc(-c2c3c(nn2CCO)CCc2c-3cc(OC)c(OC)c2OC)cc1F,> 10000 nM,2910 nM,–
